Our source for the LC retention time values is the RepoRT retention time repository (doi:10.1021/es4044374).

SMILES strings stand for the structures.

This data set is described as follows: RP, Waters XBridge C18, 50 × 2.1 mm, 3.5 µm, 30 °C, 0.2 mL/min, estimated dead time 0.55 min; A: water + 0.1% formic acid, pH 3; B: methanol + 0.1% formic acid, pH 3; gradient (min/%B) 0/10 4/50 17/95 25/95 25.1/10 30/10. Conditions: stereoisomer not certain.
On to `CN1C(=O)CN=C(c2ccccc2)c2cc(Cl)ccc21` [Diazepam], for which the LC retention time was 10.1 min.
Take `CN(C)C(=O)Nc1ccc(Cl)cc1` [Monuron]: the LC retention time was 6.7 min.
In the case of `CN(C)CC(c1ccc(O)cc1)C1(O)CCCCC1` (centres undefined) [O-desmethylvenlafaxine], the LC retention time is 4.8 min.
With `NCC1(CC(=O)O)CCCCC1` [Gabapentin], the LC retention time is 3.6 min.
Consider `CCOC(=O)C1=CC(OC(CC)CC)C(NC(C)=O)C(N)C1` (centres undefined) [Oseltamivir], for which the LC retention time was 7 min.
With `O=P(O)(OCCC(F)(F)C(F)(F)C(F)(F)C(F)(F)C(F)(F)C(F)(F)C(F)(F)C(F)(F)F)OCCC(F)(F)C(F)(F)C(F)(F)C(F)(F)C(F)(F)C(F)(F)C(F)(F)C(F)(F)F` [Bisperfluorodecyl phosphate] the figure was 20.4 min; with `CCC1OC(=O)C(C)C(OC2CC(C)(OC)C(O)C(C)O2)C(C)C(OC2OC(C)CC(N(C)C)C2O)C(C)(O)CC(C)CN(C)C(C)C(O)C1(C)O` (centres undefined) [Azithromycin], 5.9 min; with `O=C(Nc1ccc(F)cc1F)c1cccnc1Oc1cccc(C(F)(F)F)c1` [Diflufenican], 14.4 min.
For the molecule `O=C(O)C(F)(F)C(F)(F)C(F)(F)F` [Perfluorobutyric acid], the LC retention time is 5.1 min.
Regarding `COc1ccc2c(c1)c(CC(=O)O)c(C)n2C(=O)c1ccc(Cl)cc1` [Indomethacin], the LC retention time was 12.9 min.
For `CC(C)(C)c1n[nH]c(=O)n(N)c1=O` [Metribuzin-diketo], the LC retention time was 5.9 min.
`Nc1nnc(-c2cccc(Cl)c2Cl)c(N)n1` [Lamotrigine]: the LC retention time is 5.4 min.
On to `CC(C)N1C(=O)c2ccccc2NS1(=O)=O` [Bentazone], for which the LC retention time is 7.5 min.
On to `Cc1cc(=O)n(-c2ccccc2)n1C` [Antipyrine], for which the LC retention time was 4.6 min.
`CC(C)(C)Nc1nc(N)nc(Cl)n1` [Terbutylazine-desethyl]: the LC retention time was 7.6 min.
`Cc1cc(C)nc(Nc2ccccc2)n1` [Pyrimethanil]: the LC retention time is 7.6 min.
For `CN(C)S(N)(=O)=O` [N,N-Dimethylsulfamide], the LC retention time is 1.1 min.
As for `CCCCCCCCn1sccc1=O` [2-Octyl-3(2H)-isothiazolone], the LC retention time is 11.6 min.
With `O=c1[nH]c2c(c(=O)n1C1CCCCC1)CCC2` [Lenacil] the figure was 8.6 min.
`NC(CC(=O)N1CCn2c(nnc2C(F)(F)F)C1)Cc1cc(F)c(F)cc1F` (centres undefined) [Sitagliptin]: the LC retention time is 5.2 min.
As to `CC(C)Nc1nc(Cl)nc(NC(C)C)n1` [Propazine], the LC retention time was 9.9 min.
With `CCC(C)n1c(=O)[nH]c(C)c(Br)c1=O` (centres undefined) [Bromacil] the figure was 7 min; with `N#Cc1nn(-c2c(Cl)cc(C(F)(F)F)cc2Cl)c(N)c1S(=O)(=O)C(F)(F)F` [Fipronil-sulfone], 13.5 min; with `Nc1nc2ccccc2[nH]1` [2-Aminobenzimidazole], 2.7 min.
Turning to `O=P(O)(O)OCCC(F)(F)C(F)(F)C(F)(F)C(F)(F)C(F)(F)C(F)(F)C(F)(F)C(F)(F)F` [Perfluorodecyl phosphate], the LC retention time was 14.7 min.
Consider `CSc1nc(NC(C)C)nc(NC(C)C)n1` [Prometryn], for which the LC retention time is 8.5 min.
Take `COc1ccc(C(=O)c2ccccc2)c(O)c1` [Benzophenone-3]: the LC retention time was 12.1 min.
In the case of `N#Cc1nn(-c2c(Cl)cc(C(F)(F)F)cc2Cl)c(N)c1SC(F)(F)F` [Fipronil-sulfide], the LC retention time was 13 min.
Regarding `O=S(=O)(O)NC1CCCCC1` [Cyclamate], the LC retention time was 3.6 min.
`CC(C)c1c(C(=O)Nc2ccccc2)c(-c2ccccc2)c(-c2ccc(F)cc2)n1CCC(O)CC(O)CC(=O)O` (centres undefined) [Atorvastatin]: the LC retention time is 12.4 min.
With `O=C(O)C(c1ccccc1Cl)N1CCc2sccc2C1` (centres undefined) [Clopidogrel carboxylic acid] the figure was 5.7 min; with `CCOCN(C(=O)C(=O)O)c1c(C)cccc1CC` [Acetochlor OXA], 7.5 min.
On to `N#Cc1cc(I)c(O)c(I)c1` [Ioxynil], for which the LC retention time was 9.3 min.
Turning to `COc1c(C)c2c(c(O)c1CC=C(C)CCC(=O)O)C(=O)OC2` [Mycophenolic acid], the LC retention time was 9.9 min.
On to `OCc1cccc(Oc2ccccc2)c1` [3-Phenoxybenzylalcohol], for which the LC retention time is 9.8 min.
Turning to `Cc1c(NC=O)c(=O)n(-c2ccccc2)n1C` [4-Formylaminoantipyrine], the LC retention time was 3.7 min.
As to `Cc1cccc(C)c1N(Cn1cccn1)C(=O)CCl` [Metazachlor], the LC retention time was 8.5 min.
Regarding `O=C(O)COCCN1CCN(C(c2ccccc2)c2ccc(Cl)cc2)CC1` (centres undefined) [Cetirizine], the LC retention time is 9.3 min.
On to `COc1ccc(C(CN(C)C)C2(O)CCCCC2)cc1` (centres undefined) [Venlafaxine], for which the LC retention time was 6.2 min.
As to `NC(=O)N1c2ccccc2C(O)C(O)c2ccccc21` (stereo not drawn) [10,11-trans-Dihydroxy-10,11-dihydrocarbamazepine], the LC retention time is 6.1 min.
With `CCOP(=O)(OCC)Oc1cc(C)nc(C(C)C)n1` [Diazoxon], the LC retention time is 9.5 min.
Consider `CCCCc1oc2ccc(NS(C)(=O)=O)cc2c1C(=O)c1ccc(OCCCN(CCCC)CCCC)cc1` [Dronedarone], for which the LC retention time was 11.5 min.
With `COCCN(C(=O)CS(=O)(=O)O)c1c(C)cccc1C` [Dimethachlor ESA] the figure was 5.9 min; with `Cc1nc(N(C)C)nc(OC(=O)N(C)C)c1C` [Pirimicarb], 5 min; with `CCNc1nc(Cl)nc(NCC)n1` [Simazine], 6.9 min.
As to `CNC(=C[N+](=O)[O-])NCCSCc1ccc(C[N+](C)(C)[O-])o1` [Ranitidine N-oxide], the LC retention time is 2.4 min.
With `COC(=O)c1sccc1S(=O)(=O)NC(=O)Nc1nc(C)nc(OC)n1` [Thifensulfuron-methyl], the LC retention time was 7.2 min.
For `COc1nc(NC(=O)NS(=O)(=O)c2ccccc2C(F)(F)F)nc(C(F)(F)F)n1` [Tritosulfuron], the LC retention time was 10.8 min.
With `CN1CCN(C2=Nc3cc(Cl)ccc3Nc3ccccc32)CC1` [Clozapine], the LC retention time was 6.4 min.
As for `CCC1OC(=O)C(C)C(OC2CC(C)(OC)C(O)C(C)O2)C(C)C(OC2OC(C)CC(N(C)C)C2O)C(C)(OC)CC(C)C(=O)C(C)C(O)C1(C)O` (centres undefined) [Clarithromycin], the LC retention time is 9.7 min.
For the molecule `CC(=O)N(CC(O)CO)c1c(I)c(C(=O)NCC(O)CO)c(I)c(C(=O)NCC(O)CO)c1I` (centres undefined) [Iohexol], the LC retention time was 1.6 min.
For `COc1ccc2c3c1OC1C(O)C=CC4C(C2)N(C)CCC341` (centres undefined) [Codeine] the value was 2.8 min.
For `CCCCCCCCn1sc(Cl)c(Cl)c1=O` [4,5-Dichloro-2-n-octyl-3(2H)-isothiazolone (DCOIT)] the value was 15.3 min; for `CN=CNc1ccc(C)cc1C` [N'-(2,4-Dimethylphenyl)-N-methylformamidine], 4.5 min.
